Legend:
Assay type in all cases: in vivo
corn = test: post-emergence stage experiment, crop (Table 1); details: post-emergence spray at 4-5 leaf stage, 250 g/ha active ingredient with 450 kg/ha water, rated after 3 weeks in greenhouse
Summary of the method: (§1)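 Read-out is growth control rate based on fresh weight, determined 3 weeks after treatment. Plants raised from seed in potted soil (0.5-2 cm cover) in greenhouse were sprayed 2-3 weeks post-sowing at 4-5 leaves with acetone/Tween 80 aqueous compound solutions.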

wheat [1] = test: post-emergence stage experiment, crop (Table 1); details: post-emergence spray at 4-5 leaf stage, 250 g/ha active ingredient with 450 kg/ha water, rated after 3 weeks in greenhouse
Summary of the method: as §1

Indian mallow = test: weed control effect in post-emergence stage (Table 1); set-up: key: Level 10: completely dead; Level 9: above 95% growth control rate; Level 8: above 90% growth control rate; Level 7: above 80% growth control rate; Level 6: above 70% growth control rate; Level 5: above 60% growth control rate; Level 4: above 50% growth control rate; Level 3: above 20% growth control rate; Level 2: 5%-20% growth control rate; Level 1: below 5% growth control rate; details: post-emergence spray at 4-5 leaf stage, 250 g/ha active ingredient with 450 kg/ha water, rated after 3 weeks in greenhouse
Summary of the method: as §1

rorippa indica = test: as above; set-up: key: Level 10: completely dead; Level 9: above 95% growth control rate; Level 8: above 90% growth control rate; Level 7: above 80% growth control rate; Level 6: above 70% growth control rate; Level 5: above 60% growth control rate; Level 4: above 50% growth control rate; Level 3: above 20% growth control rate; Level 2: 5%-20% growth control rate; Level 1: below 5% growth control rate; details: post-emergence spray at 4-5 leaf stage, 250 g/ha active ingredient with 450 kg/ha water, rated after 3 weeks in greenhouse
Summary of the method: as §1

bidens bipinnata = test: as above; set-up: key: Level 10: completely dead; Level 9: above 95% growth control rate; Level 8: above 90% growth control rate; Level 7: above 80% growth control rate; Level 6: above 70% growth control rate; Level 5: above 60% growth control rate; Level 4: above 50% growth control rate; Level 3: above 20% growth control rate; Level 2: 5%-20% growth control rate; Level 1: below 5% growth control rate; details: post-emergence spray at 4-5 leaf stage, 250 g/ha active ingredient with 450 kg/ha water, rated after 3 weeks in greenhouse
Summary of the method: as §1

echinochloa = test: as above; set-up: key: Level 10: completely dead; Level 9: above 95% growth control rate; Level 8: above 90% growth control rate; Level 7: above 80% growth control rate; Level 6: above 70% growth control rate; Level 5: above 60% growth control rate; Level 4: above 50% growth control rate; Level 3: above 20% growth control rate; Level 2: 5%-20% growth control rate; Level 1: below 5% growth control rate; details: post-emergence spray at 4-5 leaf stage, 250 g/ha active ingredient with 450 kg/ha water, rated after 3 weeks in greenhouse
Summary of the method: as §1

crab grass = test: as above; set-up: key: Level 10: completely dead; Level 9: above 95% growth control rate; Level 8: above 90% growth control rate; Level 7: above 80% growth control rate; Level 6: above 70% growth control rate; Level 5: above 60% growth control rate; Level 4: above 50% growth control rate; Level 3: above 20% growth control rate; Level 2: 5%-20% growth control rate; Level 1: below 5% growth control rate; details: post-emergence spray at 4-5 leaf stage, 250 g/ha active ingredient with 450 kg/ha water, rated after 3 weeks in greenhouse
Summary of the method: as §1

foxtail = test: as above; set-up: key: Level 10: completely dead; Level 9: above 95% growth control rate; Level 8: above 90% growth control rate; Level 7: above 80% growth control rate; Level 6: above 70% growth control rate; Level 5: above 60% growth control rate; Level 4: above 50% growth control rate; Level 3: above 20% growth control rate; Level 2: 5%-20% growth control rate; Level 1: below 5% growth control rate; details: post-emergence spray at 4-5 leaf stage, 250 g/ha active ingredient with 450 kg/ha water, rated after 3 weeks in greenhouse
Summary of the method: as §1

shepherd's purse = test: wheat field resistant broadleaf weed control, greenhouse spray at 4 leaf stage; set-up: key: Level 10: completely dead; Level 9: above 95% growth control rate; Level 8: above 90% growth control rate; Level 7: above 80% growth control rate; Level 6: above 70% growth control rate; Level 5: above 60% growth control rate; Level 4: above 50% growth control rate; Level 3: above 20% growth control rate; Level 2: 5%-20% growth control rate; Level 1: below 5% growth control rate; details: 250 g/ha of the active substance; 4 weeks after treatment; ALS inhibitor resistant
Experimental: (§2) The activity level standard of harmful plant destruction (i.e. growth control rate) is as follows:
(§3) The above described growth control rate is fresh weight control rate.
(§4) The seeds of alopecurus japonicas, flixweed, shepherd's purse, corn gromwell, chickweed, beckmannia syzigachne, and annual ryegrass and wheat seeds were put into a plastic pot loaded with soil, and then covered with 0.5-2 cm soil, the seeds were allowed to grow in good greenhouse environment. The test plants were treated at 4 leaf stage 2-3 weeks after sowing. The test compounds of the present invention were dissolved in acetone respectively, then added with methyl oleate emulsion and diluted by certain amount of water to certain concentration. The solution was sprayed to the plant with a sprayer. Then the plants were cultured for 4 weeks in greenhouse.

corn gromwell = test: as above; set-up: key: Level 10: completely dead; Level 9: above 95% growth control rate; Level 8: above 90% growth control rate; Level 7: above 80% growth control rate; Level 6: above 70% growth control rate; Level 5: above 60% growth control rate; Level 4: above 50% growth control rate; Level 3: above 20% growth control rate; Level 2: 5%-20% growth control rate; Level 1: below 5% growth control rate; details: 250 g/ha of the active substance; 4 weeks after treatment; ALS inhibitor resistant
Experimental: as §2, §3, §4

flixweed = test: as above; set-up: key: Level 10: completely dead; Level 9: above 95% growth control rate; Level 8: above 90% growth control rate; Level 7: above 80% growth control rate; Level 6: above 70% growth control rate; Level 5: above 60% growth control rate; Level 4: above 50% growth control rate; Level 3: above 20% growth control rate; Level 2: 5%-20% growth control rate; Level 1: below 5% growth control rate; details: 250 g/ha of the active substance; 4 weeks after treatment; ALS inhibitor resistant
Experimental: as §2, §3, §4

chickweed = test: as above; set-up: key: Level 10: completely dead; Level 9: above 95% growth control rate; Level 8: above 90% growth control rate; Level 7: above 80% growth control rate; Level 6: above 70% growth control rate; Level 5: above 60% growth control rate; Level 4: above 50% growth control rate; Level 3: above 20% growth control rate; Level 2: 5%-20% growth control rate; Level 1: below 5% growth control rate; details: 250 g/ha of the active substance; 4 weeks after treatment; ALS inhibitor resistant
Experimental: as §2, §3, §4

wheat [2] = test: wheat field test, crop selectivity, greenhouse spray at 4 leaf stage; details: 250 g/ha of the active substance; 4 weeks after treatment
Summary of the method: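 Compounds in acetone were mixed with methyl oleate emulsion, diluted with water and applied with a sprayer to greenhouse plants at the 4 leaf stage. Growth control, expressed as fresh weight control rate, was assessed after 4 weeks of further culture.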

rice = test: post-emergence stage experiment, crop (Table 1); set-up: key: Level 10: completely dead; Level 9: above 95% growth control rate; Level 8: above 90% growth control rate; Level 7: above 80% growth control rate; Level 6: above 70% growth control rate; Level 5: above 60% growth control rate; Level 4: above 50% growth control rate; Level 3: above 20% growth control rate; Level 2: 5%-20% growth control rate; Level 1: below 5% growth control rate; details: post-emergence spray at 4-5 leaf stage, 250 g/ha active ingredient with 450 kg/ha water, rated after 3 weeks in greenhouse
Summary of the method: as §1

| SMILES | effect on crop, Corn (level) (corn) | effect on crop, Wheat (level) (wheat [1]) | weed control effect, Indian mallow (level) (Indian mallow) | weed control effect, Rorippa indica (level) (rorippa indica) | weed control effect, Bidens bipinnata (level) (bidens bipinnata) | weed control effect, Echinochloa (level) (echinochloa) | weed control effect, Crab grass (level) (crab grass) | weed control effect, Green foxtail (level) (foxtail) | shepherd's purse weed controlling effect (activity level) (shepherd's purse) | corn gromwell weed controlling effect (activity level) (corn gromwell) | flixweed weed controlling effect (activity level) (flixweed) | chickweed weed controlling effect (activity level) (chickweed) | Wheat (activity level, crop damage) (wheat [2]) | effect on crop, Rice (level) (rice) |
| --- | --- | --- | --- | --- | --- | --- | --- | --- | --- | --- | --- | --- | --- | --- |
| Cn1cc(C(=O)Oc2c(C(=O)c3ccc(C(F)(F)F)c(N4CCCC4=O)c3Cl)c(C3CC3)nn2C)cn1 [Compound 028] | 1 (Level 1: below 5% growth control rate) | 0 | 10 | 10 | 7 (Level 7: above 80% growth control rate) | 5 (Level 5: above 60% growth control rate) | 4 (Level 4: above 50% growth control rate) | 1 (Level 1: below 5% growth control rate) | 10 | 10 | 10 | 10 | 0 | 1 (Level 1: below 5% growth control rate) |
| CCOc1c(C(=O)Oc2c(C(=O)c3ccc(C(F)(F)F)c(-n4cc(C)cn4)c3Cl)c(C)nn2C)cnn1C [Compound 086] | 0 | 0 | 10 | 10 | 6 (Level 6: above 70% growth control rate) | 5 (Level 5: above 60% growth control rate) | 4 (Level 4: above 50% growth control rate) | 2 (Level 2: 5%-20% growth control rate) | 10 | 10 | 10 | 10 | 0 | 2 (Level 2: 5%-20% growth control rate) |
| CCn1nc(C2CC2)c(C(=O)c2ccc(C(F)(F)F)c(-n3cccn3)c2Cl)c1O [Compound 134] | 3 (Level 3: above 20% growth control rate) | 1 (Level 1: below 5% growth control rate) | 10 | 10 | 9 (Level 9: above 95% growth control rate) | 6 (Level 6: above 70% growth control rate) | 2 (Level 2: 5%-20% growth control rate) | 10 | 10 | 10 | 10 | 10 | 1 (Level 1: below 5% growth control rate) | 10 |
| CCc1nn(C)c(OC(=O)c2cn(C)nc2C)c1C(=O)c1ccc(C(F)(F)F)c(N2CCCCCC2=O)c1Cl [Compound 121] | 1 (Level 1: below 5% growth control rate) | 1 (Level 1: below 5% growth control rate) | 5 (Level 5: above 60% growth control rate) | 10 | 3 (Level 3: above 20% growth control rate) | 10 | 4 (Level 4: above 50% growth control rate) | 9 (Level 9: above 95% growth control rate) | 10 | 10 | 10 | 10 | 1 (Level 1: below 5% growth control rate) | 6 (Level 6: above 70% growth control rate) |
| CCc1nn(C)c(O)c1C(=O)c1ccc(C(F)(F)F)c(N2CCCCCC2=O)c1Cl [Compound 120] | 1 (Level 1: below 5% growth control rate) | 1 (Level 1: below 5% growth control rate) | 4 (Level 4: above 50% growth control rate) | 10 | 4 (Level 4: above 50% growth control rate) | 10 | 1 (Level 1: below 5% growth control rate) | 7 (Level 7: above 80% growth control rate) | 10 | 10 | 10 | 10 | 1 (Level 1: below 5% growth control rate) | 5 (Level 5: above 60% growth control rate) |
| CCn1ncc(C(=O)c2ccc(C(F)(F)F)c(N3CCCC3=O)c2Cl)c1O [Compound 096] | 0 | 1 (Level 1: below 5% growth control rate) | 10 | 10 | 10 | 10 | 5 (Level 5: above 60% growth control rate) | 10 | 10 | 10 | 10 | 10 | 1 (Level 1: below 5% growth control rate) | 9 (Level 9: above 95% growth control rate) |
